Here are results for seven cell lines from the supplement of paper PMC10307832.

Holding throughout (experiment): relative viability (nuclei count vs DMSO), 5 days (fraction); higher = more cells survive
Compound in the experiment “Dovitinib + Pemetrexed”: CN1CCN(c2ccc3nc(-c4c(N)c5c(F)cccc5[nH]c4=O)[nH]c3c2)CC1 [Dovitinib] + Nc1nc2[nH]cc(CCc3ccc(C(=O)N[C@@H](CCC(=O)O)C(=O)O)cc3)c2c(=O)[nH]1 [Pemetrexed] (partner 0.2 µM)
Summed up: (§1)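 Lung cancer cell lines were pin-tool dosed in 1536-well plates on the day after seeding, with either a lone drug or a fixed anchor-drug dose plus five library-drug doses (not always all listed) in √10 steps. Nuclei were counted on 4× images after 5 days. Relative viability is the ratio of treated-well to vehicle-well nuclei counts, with each value a median of duplicate plates.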

Compound in the experiment “Dovitinib + Navitoclax”: CN1CCN(c2ccc3nc(-c4c(N)c5c(F)cccc5[nH]c4=O)[nH]c3c2)CC1 [Dovitinib] + CC1(C)CCC(c2ccc(Cl)cc2)=C(CN2CCN(c3ccc(C(=O)NS(=O)(=O)c4ccc(N[C@H](CCN5CCOCC5)CSc5ccccc5)c(S(=O)(=O)C(F)(F)F)c4)cc3)CC2)C1 [Navitoclax] (partner 0.5 µM)
An outline of the steps:
as §1

Compound in the experiment “Dovitinib + Phenformin”: CN1CCN(c2ccc3nc(-c4c(N)c5c(F)cccc5[nH]c4=O)[nH]c3c2)CC1 [Dovitinib] + N=C(N)NC(=N)NCCc1ccccc1 [Phenformin] (partner 250 µM)
Summed up:
as §1

Compound in the experiment “Dovitinib + Trametinib”: CN1CCN(c2ccc3nc(-c4c(N)c5c(F)cccc5[nH]c4=O)[nH]c3c2)CC1 [Dovitinib] + CC(=O)Nc1cccc(-n2c(=O)n(C3CC3)c(=O)c3c(Nc4ccc(I)cc4F)n(C)c(=O)c(C)c32)c1 [Trametinib] (partner 0.02 µM)
Summed up:
as §1

Turning to NCI-H1651, the relative viability with Dovitinib + Pemetrexed (first compound 0.02 µM) was found to be 0.553; in the experiment with Dovitinib + Pemetrexed (first compound 0.06325 µM), 0.544; with Dovitinib + Pemetrexed (first compound 0.2 µM), 0.563; with Dovitinib + Pemetrexed (first compound 0.6325 µM), 0.64; with Dovitinib + Pemetrexed (first compound 2 µM) it was 0.544; with Dovitinib + Navitoclax (first compound 0.02 µM), 1.09. The relative viability with Dovitinib + Navitoclax (first compound 0.06325 µM) amounted to 1.04; with Dovitinib + Navitoclax (first compound 0.2 µM), 1.03; with Dovitinib + Navitoclax (first compound 0.6325 µM), 1.02; in the experiment with Dovitinib + Navitoclax (first compound 2 µM), 1.03; with Dovitinib + Phenformin (first compound 0.02 µM), 0.336; with Dovitinib + Phenformin (first compound 0.06325 µM) it was 0.352. Besides, the relative viability with Dovitinib + Phenformin (first compound 0.2 µM) was determined as 0.485; with Dovitinib + Phenformin (first compound 0.6325 µM) it was 0.347; in the experiment with Dovitinib + Phenformin (first compound 2 µM), 0.275; with Dovitinib + Trametinib (first compound 0.02 µM), 0.852; with Dovitinib + Trametinib (first compound 0.06325 µM), 0.809; with Dovitinib + Trametinib (first compound 0.2 µM), 0.816. Moreover, the values for the relative viability with Dovitinib + Trametinib (first compound 0.6325 µM) and with Dovitinib + Trametinib (first compound 2 µM) were 0.81 and 0.857, respectively.
As for NCI-H1666, the relative viability with Dovitinib + Pemetrexed (first compound 0.02 µM) stood at 0.913; with Dovitinib + Pemetrexed (first compound 0.06325 µM), 0.863; with Dovitinib + Pemetrexed (first compound 0.2 µM) it was 0.766; in the experiment with Dovitinib + Pemetrexed (first compound 0.6325 µM) it was 0.813; in the experiment with Dovitinib + Pemetrexed (first compound 2 µM) it was 0.785; in the experiment with Dovitinib + Navitoclax (first compound 0.02 µM), 0.835. Besides, the relative viability in the experiment with Dovitinib + Navitoclax (first compound 0.06325 µM) was determined as 0.966; with Dovitinib + Navitoclax (first compound 0.2 µM), 0.887; with Dovitinib + Navitoclax (first compound 0.6325 µM), 0.901; with Dovitinib + Navitoclax (first compound 2 µM), 1.03; with Dovitinib + Phenformin (first compound 0.02 µM), 0.612; in the experiment with Dovitinib + Phenformin (first compound 0.06325 µM), 0.579. For the same cell line, the relative viability was 0.588 with Dovitinib + Phenformin (first compound 0.2 µM); 0.554 in the experiment with Dovitinib + Phenformin (first compound 0.6325 µM); 0.566 with Dovitinib + Phenformin (first compound 2 µM); 1.02 with Dovitinib + Trametinib (first compound 0.02 µM); 0.881 with Dovitinib + Trametinib (first compound 0.06325 µM); 0.939 with Dovitinib + Trametinib (first compound 0.2 µM). Besides, the figures for the relative viability with Dovitinib + Trametinib (first compound 0.6325 µM) and in the experiment with Dovitinib + Trametinib (first compound 2 µM) were 0.945 and 0.855, respectively.
With NCI-H1734, the relative viability amounted to 0.443 with Dovitinib + Pemetrexed (first compound 0.02 µM); 0.442 in the experiment with Dovitinib + Pemetrexed (first compound 0.06325 µM); 0.414 with Dovitinib + Pemetrexed (first compound 0.2 µM); 0.403 with Dovitinib + Pemetrexed (first compound 0.6325 µM); 0.418 in the experiment with Dovitinib + Pemetrexed (first compound 2 µM); 0.876 with Dovitinib + Navitoclax (first compound 0.02 µM). Moreover, the relative viability with Dovitinib + Navitoclax (first compound 0.06325 µM) is 0.826; in the experiment with Dovitinib + Navitoclax (first compound 0.2 µM), 0.849; with Dovitinib + Navitoclax (first compound 0.6325 µM), 0.851; with Dovitinib + Navitoclax (first compound 2 µM), 0.822; with Dovitinib + Phenformin (first compound 0.02 µM) it was 0.418; with Dovitinib + Phenformin (first compound 0.06325 µM), 0.408. The relative viability with Dovitinib + Phenformin (first compound 0.2 µM) is 0.38; with Dovitinib + Phenformin (first compound 0.6325 µM) it was 0.396; with Dovitinib + Phenformin (first compound 2 µM), 0.372; with Dovitinib + Trametinib (first compound 0.02 µM), 0.652; in the experiment with Dovitinib + Trametinib (first compound 0.06325 µM) it was 0.68; with Dovitinib + Trametinib (first compound 0.2 µM), 0.762. Besides, the results for the relative viability with Dovitinib + Trametinib (first compound 0.6325 µM) and in the experiment with Dovitinib + Trametinib (first compound 2 µM) were 0.651 and 0.642, respectively.
Regarding EPLC-272H, the relative viability was found to be 0.408 with Dovitinib + Pemetrexed (first compound 0.02 µM); 0.35 with Dovitinib + Pemetrexed (first compound 0.06325 µM); 0.274 with Dovitinib + Pemetrexed (first compound 0.2 µM); 0.398 in the experiment with Dovitinib + Pemetrexed (first compound 0.6325 µM); 0.372 in the experiment with Dovitinib + Pemetrexed (first compound 2 µM); 1.05 with Dovitinib + Navitoclax (first compound 0.02 µM). For the same cell line, the relative viability amounted to 0.993 in the experiment with Dovitinib + Navitoclax (first compound 0.06325 µM); 1.24 with Dovitinib + Navitoclax (first compound 0.2 µM); 1.49 in the experiment with Dovitinib + Navitoclax (first compound 0.6325 µM); 0.97 in the experiment with Dovitinib + Navitoclax (first compound 2 µM); 0.323 with Dovitinib + Phenformin (first compound 0.02 µM); 0.309 with Dovitinib + Phenformin (first compound 0.06325 µM). Besides, the relative viability in the experiment with Dovitinib + Phenformin (first compound 0.2 µM) was determined as 0.274; in the experiment with Dovitinib + Phenformin (first compound 0.6325 µM) it was 0.384; with Dovitinib + Phenformin (first compound 2 µM), 0.317; with Dovitinib + Trametinib (first compound 0.02 µM) it was 0.306; with Dovitinib + Trametinib (first compound 0.06325 µM), 0.269; in the experiment with Dovitinib + Trametinib (first compound 0.2 µM), 0.298. Moreover, the values for the relative viability with Dovitinib + Trametinib (first compound 0.6325 µM) and with Dovitinib + Trametinib (first compound 2 µM) were 0.269 and 0.303, respectively.
NCI-H2023: the relative viability with Dovitinib + Pemetrexed (first compound 0.02 µM) worked out at 0.205; in the experiment with Dovitinib + Pemetrexed (first compound 0.06325 µM), 0.232; with Dovitinib + Pemetrexed (first compound 0.2 µM), 0.238; with Dovitinib + Pemetrexed (first compound 0.6325 µM), 0.216; with Dovitinib + Pemetrexed (first compound 2 µM) it was 0.19; in the experiment with Dovitinib + Navitoclax (first compound 0.02 µM), 0.996. The relative viability was determined as 1.03 in the experiment with Dovitinib + Navitoclax (first compound 0.06325 µM); 1.04 with Dovitinib + Navitoclax (first compound 0.2 µM); 0.945 with Dovitinib + Navitoclax (first compound 0.6325 µM); 0.929 with Dovitinib + Navitoclax (first compound 2 µM); 0.38 with Dovitinib + Phenformin (first compound 0.02 µM); 0.416 with Dovitinib + Phenformin (first compound 0.06325 µM). Also, the relative viability came to 0.457 with Dovitinib + Phenformin (first compound 0.2 µM); 0.38 in the experiment with Dovitinib + Phenformin (first compound 0.6325 µM); 0.398 in the experiment with Dovitinib + Phenformin (first compound 2 µM); 0.549 in the experiment with Dovitinib + Trametinib (first compound 0.02 µM); 0.493 in the experiment with Dovitinib + Trametinib (first compound 0.06325 µM); 0.405 in the experiment with Dovitinib + Trametinib (first compound 0.2 µM). Besides, the relative viability is 0.5 with Dovitinib + Trametinib (first compound 0.6325 µM) and 0.537 with Dovitinib + Trametinib (first compound 2 µM).
In the case of BEN, the relative viability stood at 0.713 in the experiment with Dovitinib + Pemetrexed (first compound 0.02 µM); 0.812 with Dovitinib + Pemetrexed (first compound 0.06325 µM); 0.633 in the experiment with Dovitinib + Pemetrexed (first compound 0.2 µM); 0.836 with Dovitinib + Pemetrexed (first compound 0.6325 µM); 0.697 with Dovitinib + Pemetrexed (first compound 2 µM); 0.0734 in the experiment with Dovitinib + Navitoclax (first compound 0.02 µM). Moreover, the relative viability in the experiment with Dovitinib + Navitoclax (first compound 0.06325 µM) was 0.0569; with Dovitinib + Navitoclax (first compound 0.2 µM) it was 0.0676; with Dovitinib + Navitoclax (first compound 0.6325 µM) it was 0.0923; in the experiment with Dovitinib + Navitoclax (first compound 2 µM) it was 0.0738; with Dovitinib + Phenformin (first compound 0.02 µM), 0.248; with Dovitinib + Phenformin (first compound 0.06325 µM) it was 0.288. Moreover, the relative viability in the experiment with Dovitinib + Phenformin (first compound 0.2 µM) worked out at 0.281; with Dovitinib + Phenformin (first compound 0.6325 µM), 0.296; with Dovitinib + Phenformin (first compound 2 µM), 0.305; with Dovitinib + Trametinib (first compound 0.02 µM), 0.976; in the experiment with Dovitinib + Trametinib (first compound 0.06325 µM), 0.888; in the experiment with Dovitinib + Trametinib (first compound 0.2 µM), 1.01. For the same cell line, the relative viability with Dovitinib + Trametinib (first compound 0.6325 µM) was 1.05; with Dovitinib + Trametinib (first compound 2 µM), 1.04.
As to COR-L 105, the relative viability in the experiment with Dovitinib + Pemetrexed (first compound 0.02 µM) was 1.23; in the experiment with Dovitinib + Pemetrexed (first compound 0.06325 µM), 1.09; with Dovitinib + Pemetrexed (first compound 0.2 µM), 1.05; with Dovitinib + Pemetrexed (first compound 0.6325 µM), 1; in the experiment with Dovitinib + Pemetrexed (first compound 2 µM) it was 0.92; in the experiment with Dovitinib + Navitoclax (first compound 0.02 µM), 0.701. Also, the relative viability with Dovitinib + Navitoclax (first compound 0.06325 µM) is 0.62; with Dovitinib + Navitoclax (first compound 0.2 µM), 0.754; in the experiment with Dovitinib + Navitoclax (first compound 0.6325 µM), 0.646; in the experiment with Dovitinib + Navitoclax (first compound 2 µM), 0.806; with Dovitinib + Phenformin (first compound 0.02 µM), 0.396; with Dovitinib + Phenformin (first compound 0.06325 µM), 0.52. In addition, the relative viability with Dovitinib + Phenformin (first compound 0.2 µM) was determined as 0.506; in the experiment with Dovitinib + Phenformin (first compound 0.6325 µM), 0.486; with Dovitinib + Phenformin (first compound 2 µM) it was 0.62; with Dovitinib + Trametinib (first compound 0.02 µM), 0.533; with Dovitinib + Trametinib (first compound 0.06325 µM), 0.405; with Dovitinib + Trametinib (first compound 0.2 µM), 0.441. In addition, the relative viability was 0.459 in the experiment with Dovitinib + Trametinib (first compound 0.6325 µM) and 0.577 with Dovitinib + Trametinib (first compound 2 µM).
